In publication PMC6696947 (European journal of pharmacology, 2019):
“Also recorded” adds a separate entry of the source.

Tests used:
rats [1] = conditions: positive control; ref Carlezon et al., 2006; Curzon et al., 2009; cited from earlier work
rats [2] = assay: Self-administration model; assay type: in vivo, male Sprague-Dawley rats; conditions: n=8
rats [3] = assay: Hot plate model; assay type: in vivo, male Sprague-Dawley rats; conditions: JT07/JT09 20 mg/kg p.o.; morphine 10 mg/kg i.p.; %MPE, 53.0 °C, cut-off 30 s
rats [4] = assay: Acetic acid-induced writhing model; assay type: in vivo, male Sprague-Dawley rats; conditions: test compound 20 mg/kg p.o.; morphine 10 mg/kg i.p.; Student's t-test, P<0.05
rats [5] = assay: Locomotor open field test; conditions: JT09 20 mg/kg p.o.; morphine 10 mg/kg i.p.
[6] = no reference given, cited from earlier work
[7] = no reference given; cited from earlier work
[8] = no reference given, cited from earlier work; remark: listed apart in the source

Compound: COC(=O)[C@@H]1C[C@H](OC(C)=O)C(=O)[C@H]2[C@@]1(C)CC[C@H]1C(=O)O[C@H](c3ccoc3)C[C@]21C [Salvinorin A]
- depressant-like effects (in words) (rats [1]): known depressant-like effects at high dose levels, such as dysphoria

Compound: COC(=O)[C@H]1[C@@H](OC(=O)c2ccccc2)C[C@@H]2CC[C@H]1N2C [cocaine]
- number of cocaine infusions / active lever presses over 7 days (rats [2]; cocaine 50ug/50ul bolus after JT09, nose poke, F(6,42)=4.6, P<0.0012): number of cocaine infusions increased over the 7 days; also recorded: number of cocaine active lever presses increased over the 7 days; also recorded: expected increase in the number of lever presses over the seven-day period
- cocaine infusions / active lever presses on days 6 and 7 (rats [2]; cocaine after JT09, Dunnett post hoc, P<0.05): significantly more infusion on days 6 and 7; also recorded: significantly more active lever presses on days 6 and 7

Compound: CN1CC[C@]23c4c5ccc(O)c4O[C@H]2[C@@H](O)C=C[C@H]3[C@H]1C5 [morphine]
- analgesic activity in hot plate model (rats [3]): potent analgesic
- potency/efficacy versus morphine in writhing (peripheral pain) (rats [4]): comparable analgesic activity
- sedation (in words) (rats [5]): highly sedative

Compound: D-Phe-D-Phe-D-Nle-D-Arg-NH2 [CR665]
- oral activity (in words) ([6]; background statement in abstract): inactive when administered orally
- oral bioavailability (in words) [6]: does not have significant oral bioavailability
- efficacy in visceral and neuropathic pain (in words) [7]: has demonstrated efficacy in the treatment of visceral and neuropathic pain without the negative side-effects of centrally acting KOAs
- peripheral to central selectivity in analgesic models (in words) ([8]; i.v., background statement in abstract): high peripheral to central selectivity
- peripheral-selectivity ([8]; peripheral versus central): 548 fold
